Where two headings read alike, the source gives them in different places. Marks after values point to notes of the source that are not given here.
Experiments:
[1] = Storage stability of benzoylacetate salts and their corresponding acid (HPLC or gravimetric); assay type: physicochemical; conditions: for % relative to initial sample amount (by HPLC): stored in freezer (ca −18° C.)
Procedure: (§1) A 0.2 M solution of ethyl benzoyl acetate (90%, Sigma Aldrich) in 0.5 M NaOH (aq) was prepared at room temperature and stirred for typically 5-24 hours, still at room temperature. After this time a major part of the ethyl benzoyl acetate had been transformed into dissolved sodium benzoyl acetate, as evidenced by monitoring the reaction by analysis of samples by reversed phase HPLC. Some acetophenone and remaining ethyl benzoyl acetate were typically present in the samples, but in minor amounts. The method employed a C8 column with an inner diameter of 150×4.6 mm and 5 micron particles. The mobile phase consisted of 400 ml deionized water+600 ml acetonitrile+0.196 g H3PO4 (85%)+2.760 g NaH2PO4*H2O. The flow rate was set to 1.0 mL/min and UV detection at 254 nm was employed for analysis of the compounds ethylbenzoylacetate (precursor), benzoylacetate (model prodrug) and acetophenone (model drug).
The storage stability of the sodium and calcium salts of benzoylacetate, and of benzoylacetic acid, in solid form, and in aqueous solutions, was investigated by storage of samples under various conditions (see Table 3a above) with regular HPLC- or gravimetric measurements of the samples from time to time. Samples denoted “neutralized” were prepared from a solution prepared as described in Example 1, which was neutralized with diluted HCl after performing the steps in Example 1.
From the data it can be concluded that the best storage stability at room temperature is obtained by storage in the form of the calcium salt.

[2] = pH 7
[3] = Sustained release of acetophenone in vitro in model blood electrolyte solution at 37° C.; assay type: physicochemical; conditions: for Concentration of sodium benzoyl acetate model prodrug in sample: model blood electrolyte solution pH 7.4
Procedure: as §1
Ethyl benzoyl acetate was saponified according to the description in Example 1, and after 7 hours a solution containing about 0.2 M of the sodium salt of benzoyl acetate was obtained.

## O=C([O-])CC(=O)c1ccccc1.[Na+] [sodium benzoylacetate]
[1]; Alkaline solution of Na-benzoyl acetate from Example 1, stored at room T, storage time 2 days
  % relative to sample amount remaining after 2 days (by HPLC): 100.0%
[1]; Alkaline solution of Na-benzoyl acetate from Example 1, stored at room T, storage time 8 days
  % relative to sample amount remaining after 2 days (by HPLC): 66.2%
[1]; Alkaline solution of Na-benzoyl acetate from Example 1, stored at room T, storage time 23 days
  % relative to sample amount remaining after 2 days (by HPLC): 10.0%
[1]; Neutralized solution of Na-benzoyl acetate from Example 1 (pH 7.1), at room T, storage time 2 days
  % relative to sample amount remaining after 2 days (by HPLC): 100.0%
[1]; Neutralized solution of Na-benzoyl acetate from Example 1 (pH 7.1), at room T, storage time 8 days
  % relative to sample amount remaining after 2 days (by HPLC): 52.0%
[1]; Neutralized solution of Na-benzoyl acetate from Example 1 (pH 7.1), at room T, storage time 23 days
  % relative to sample amount remaining after 2 days (by HPLC): 8.9%
[1]; Solid Na-salt, neutralized, 30-50% RH at room T, storage time 2 days
  % relative to sample amount remaining after 2 days (by HPLC): 100.0%
[1]; Solid Na-salt, neutralized, 30-50% RH at room T, storage time 8 days
  % relative to sample amount remaining after 2 days (by HPLC): 84.8%
[1]; Solid Na-salt, neutralized, 30-50% RH at room T, storage time 23 days
  % relative to sample amount remaining after 2 days (by HPLC): 33.4%
[1]; Solid Na-salt, neutralized, 30-50% RH at room T, storage time 185 days
  % of absolute amount expected to be present in sample (by HPLC): 1.3*** %
[1]; Solid Na-salt, neutralized, stored at 6° C., storage time 0 days
  % of absolute amount expected to be present in sample (by HPLC): 103.1%
[1]; Solid Na-salt, neutralized, stored at 6° C., storage time 2 days
  % of absolute amount expected to be present in sample (by HPLC): 112.6%
[1]; Solid Na-salt, neutralized, stored at 6° C., storage time 5 days
  % of absolute amount expected to be present in sample (by HPLC): 109.2%
[1]; Solid Na-salt, neutralized, stored at 6° C., storage time 8 days
  % of absolute amount expected to be present in sample (by HPLC): 102.0%
[1]; Solid Na-salt, neutralized, stored at 6° C., storage time 12 days
  % of absolute amount expected to be present in sample (by HPLC): 100.7%
[1]; Solid Na-salt, neutralized, stored at 6° C., storage time 16 days
  % of absolute amount expected to be present in sample (by HPLC): 98.5%
[1]; Solid Na-salt, neutralized, stored at 6° C., storage time 21 days
  % of absolute amount expected to be present in sample (by HPLC): 81.9%
[1]; Solid Na-salt, neutralized, stored at 6° C., storage time 37 days
  % of absolute amount expected to be present in sample (by HPLC): 74.6%
[1]; Solid Na-salt, neutralized, stored at 6° C., storage time 49 days
  % of absolute amount expected to be present in sample (by HPLC): 72.3%
[1]; Solid Na-salt, neutralized, stored at 60° C., storage time 0.02 days
  % of absolute amount expected to be present in sample (by HPLC): 77.2%
[1]; Solid Na-salt, neutralized, stored at 60° C., storage time 0.8 days
  % of absolute amount expected to be present in sample (by HPLC): 10.7%
[1]; Solid Na-salt, neutralized, stored at 60° C., storage time 9.1 days
  % of absolute amount expected to be present in sample (by HPLC): 3.6%
[1]; Solid Na-salt, neutralized, storage time 0 days
  % relative to initial sample amount (by HPLC): 100%
[1]; Solid Na-salt, neutralized, storage time 2 days
  % relative to initial sample amount (by HPLC): 100%
[1]; Solid Na-salt, neutralized, storage time 5 days
  % relative to initial sample amount (by HPLC): 124%
[1]; Solid Na-salt, neutralized, storage time 8 days
  % relative to initial sample amount (by HPLC): 106%
[1]; Solid Na-salt, neutralized, storage time 12 days
  % relative to initial sample amount (by HPLC): 112%
[1]; Solid Na-salt, neutralized, storage time 16 days
  % relative to initial sample amount (by HPLC): 106%
[1]; Solid Na-salt, neutralized, storage time 21 days
  % relative to initial sample amount (by HPLC): 101%
[1]; Solid Na-salt, neutralized, storage time 37 days
  % relative to initial sample amount (by HPLC): 105%
[1]; Solid Na-salt, neutralized, storage time 49 days
  % relative to initial sample amount (by HPLC): 117%
[1]; Solid Na-salt, non neutralized, 30-50% RH at room T, storage time 2 days
  % relative to sample amount remaining after 2 days (by HPLC): 100.0%
[1]; Solid Na-salt, non neutralized, 30-50% RH at room T, storage time 8 days
  % relative to sample amount remaining after 2 days (by HPLC): 46.8%
[1]; Solid Na-salt, non neutralized, 30-50% RH at room T, storage time 23 days
  % relative to sample amount remaining after 2 days (by HPLC): 12.4%
[2]
  Solubility: ≧200 mM
physchem; pH 7, water, Solubility
  Solubility: > 200 mM
physchem; water, Solubility (mM, as acetophenone equivalents)
  Solubility: ≥ 200 mM
[3]; model blood electrolyte solution pH 7.4, 37° C., read-out: estimated half-life (converted)
  half-life at 2 mM: ~20 h
[3]; Time @ 37° C. 0.42
  Concentration of sodium benzoyl acetate model prodrug in sample: 2660 µM
[3]; Time @ 37° C. 2.25
  Concentration of sodium benzoyl acetate model prodrug in sample: 2300 µM
[3]; Time @ 37° C. 3.17
  Concentration of sodium benzoyl acetate model prodrug in sample: 2440 µM
[3]; Time @ 37° C. 4.17
  Concentration of sodium benzoyl acetate model prodrug in sample: 2400 µM
[3]; Time @ 37° C. 6.17
  Concentration of sodium benzoyl acetate model prodrug in sample: 1710 µM
[3]; Time @ 37° C. 8.25
  Concentration of sodium benzoyl acetate model prodrug in sample: 1960 µM
[3]; Time @ 37° C. 10.17
  Concentration of sodium benzoyl acetate model prodrug in sample: 1690 µM
[3]; Time @ 37° C. 12.17
  Concentration of sodium benzoyl acetate model prodrug in sample: 1590 µM
[3]; Time @ 37° C. 13.92
  Concentration of sodium benzoyl acetate model prodrug in sample: 1520 µM
[3]; Time @ 37° C. 17.92
  Concentration of sodium benzoyl acetate model prodrug in sample: 1430 µM
[3]; Time @ 37° C. 21.17
  Concentration of sodium benzoyl acetate model prodrug in sample: 1310 µM
[3]; Time @ 37° C. 24.92
  Concentration of sodium benzoyl acetate model prodrug in sample: 1020 µM
[3]; Time @ 37° C. 31.33
  Concentration of sodium benzoyl acetate model prodrug in sample: 940 µM
[3]; Time @ 37° C. 48.75
  Concentration of sodium benzoyl acetate model prodrug in sample: 530 µM
[3]; Time @ 37° C. 76.33
  Concentration of sodium benzoyl acetate model prodrug in sample: 200 µM

Reference: US20120065179A1, “PRODRUG COMPRISING BETA-KETO CARBOXYLIC ACID, BETA-KETO CARBOXYLIC ACID SALT OR BETA-KETO CARBOXYLIC ACID ESTER FOR DRUG DELIVERY” (YKI, Ytemiska Institutet AB, priority 2009, published 2012)
